{"source": "patent EP2823816A1", "about": "“Inhibitors of Neuropilin and use thereof for the treatment of Neuropilin-related diseases” (Tragex Pharma, priority 2013, dated 2015)", "key": {"HUVEC cells": {"tested_on": "HUVEC cells", "assay": "Tube formation assay", "type": "cell-based", "details": "HUVEC on collagen, VEGF-A165-stimulation, Figure 2", "procedure": "Collagen type I (1 mg/ml, BD) was mixed with 0.1N NaOH, 0.1% bicarbonate and 10X in medium EBM-2 and kept on ice until placed into the wells. The assay was prepared in 96-well plate format and the bottom layer of collagen was formed by adding 70 µL of the solution per well and allowing subsequent gelation at 37°C for 30 min. The HUVEC cells were then seeded on collagen at […] cells per well. After monolayer formation (one day), a second layer of collagen 200 µL per well was prepared according to the same protocol and gently placed on top of the cell layer. The compounds of the invention were added to the cells at the adhesion step (concentration corresponding to the Inhibitory Concentration 50 (IC50)). After 24 and 48 h of incubation at 37°C, tube formation was observed and pictures were taken."}, "MDA-MB-231": {"tested_on": "MDA-MB-231", "assay": "WST-1 proliferation / cytotoxic test", "type": "cell-based, human", "details": "for IC50: Homo sapiens", "procedure": "After observation of cells under the microscope, old media were removed and the adherent cells washed gently twice with PBS (Phosphate Buffer Saline, -Ca^2+, -Mg^2+, Lonza cat n°: 17-512F/12). All cells were detached with 3 ml of trypsin/EDTA (chelator of calcium and magnesium ions) (Lonza), incubated for 5 min at 37°C, and examined using a microscope to ensure that the cells were detached and floating. Then, 3 ml TNS (Trypsin Neutralizing Solution, Lonza, France, cat n° CC-5002) or of culture medium were added to inactivate the trypsin, and the cell suspension was transferred in a falcon tube and centrifuged for 7 min at 1400 rpm. The supernatant was removed and the cell pellet resuspended in […] of culture medium. 50 µL of this solution were transferred in 20 µL of isotonic solution and the cells were counted by count cellular (Beckman Coulter). […]\nThe cell proliferation WST-1 assay is a colorimetric assay for the quantification of cell proliferation and viability, based on the enzymatic cleavage of the tetrazolium salt WST-1 added to the culture medium, to a water soluble colored formazan dye, detected by absorbance at 450 nm, by mitochondrial succinate-tetrazoliumreductase in viable cells. […]\nAfter an incubation period of 72 h, at day 4, were prepared the 19 mL medium with reagent WST-1 1mL (10 mL WST-1 in 200 mL well). […] The cells were incubated at 37°C in a humidified atmosphere of 5% CO2 for 1h30 and the absorbance at 450-655 nm was measured by Microplate Manager 5.2 (Bio-Rad)."}, "MDA-MB-231 cancer cells": {"tested_on": "MDA-MB-231 cancer cells", "assay": "Motility assay (videomicroscopy)", "type": "cell-based, human", "details": "MDA-MB-231, 24 h, at the IC50 of the proliferation assay, Figure 4", "procedure": "Endothelial cells (HUVEC) and breast cancer cells (MDA-MB-231) were seeded in 35 mm diameter tissue culture dishes at 3×10^4 and 6×10^4 cells per dish respectively and treated separately with DMSO (control) and compound 1 of the invention (treatment) for 24 h, at the concentration of IC50 obtained with the proliferation assay.\nThe dishes were placed in an enclosed warming incubator on the motorized stage of a computer-controlled Eclipse Ti inverted microscope (Nikon Instruments Europe) equipped with a CCD Cool- SNAP HQ2 camera (Roper Scientific, USA) and a PC workstation. The incubator allowed samples to be kept at 37°C in a humidified atmosphere containing 5% CO2, 95% air. Phase images were recorded at 100× every 5 min simultaneously over several fields from 0 till 24 h (288 frames). Cell motility was tracked and analyzed for at least 25 cells in each field over three independent experiments. The total distance of migration and the speed of migration were analyzed. The degree of persistence of movement was defined as the ratio between the linear distance and the total distance covered by the cells. Image acquisition and analyses were carried out using Metamorph7 software (Universal Imaging)."}, "HT-29": {"tested_on": "HT-29", "assay": "WST-1 proliferation / cytotoxic test", "type": "cell-based", "details": "Homo sapiens, Colon, wst-1 cytotoxic test, 72 h", "procedure": "(§1) After observation of cells under the microscope, old media were removed and the adherent cells washed gently twice with PBS (Phosphate Buffer Saline, -Ca^2+, -Mg^2+, Lonza cat n°: 17-512F/12). All cells were detached with 3 ml of trypsin/EDTA (chelator of calcium and magnesium ions) (Lonza), incubated for 5 min at 37°C, and examined using a microscope to ensure that the cells were detached and floating. Then, 3 ml TNS (Trypsin Neutralizing Solution, Lonza, France, cat n° CC-5002) or of culture medium were added to inactivate the trypsin, and the cell suspension was transferred in a falcon tube and centrifuged for 7 min at 1400 rpm. The supernatant was removed and the cell pellet resuspended in […] of culture medium. 50 µL of this solution were transferred in 20 µL of isotonic solution and the cells were counted by count cellular (Beckman Coulter). At day 0, 200 µL of cellular suspension (3.10^3 cells/well for the HUVEC cells, breast cancer cells (MDA-MB-231 1.10^4 cells/well, MDA-MB-468 2.10^4 cells/well,); cervical cancer cells (HeLa 5.000 cells/well); colon cancer cells (HCT-116 5.10^3 cells/well, HCT-29 1.1.10^4 cells/well); pancreas cancer cells (Panc-10.5 1.5.10^4 cells/well); brain cancer cells (U87 5.10^3 cells/well, SH-SYSY 8.10^4 cells/well); Lung cancer cells (A 549 1.10^4 cells/well, NCI-H460 1.10^4 cells/well); fibrosarcoma cells (HT 1080 8.10^3 cells/well); Burkitt's lymphoma cells (DAUDI 3.10^4 cells/well); acute lymphoblastic leukemia cells (CEM 3.10^4 cells/well); chronic myeloid leukemia cells (ERY 5.10^4 cells/well); mantle cell lymphoma (GRANTA 1.10^5 cells/well); B lymphoma cells (VAL 1.10^5 cells/well)) were then plated on 96 well plates and incubated at 37°C in a humidified atmosphere of 5% CO2 for 24 h.\n(§2) At day 1, the compound 1 of the invention was added at increasing concentrations (0.1 - 10 µM) in the wells and plates were incubated at 37°C in a humidified atmosphere of 5% CO2 for 72 h.\n(§3) The cell proliferation WST-1 assay is a colorimetric assay for the quantification of cell proliferation and viability, based on the enzymatic cleavage of the tetrazolium salt WST-1 added to the culture medium, to a water soluble colored formazan dye, detected by absorbance at 450 nm, by mitochondrial succinate-tetrazoliumreductase in viable cells. An augmentation in enzyme activity will then lead to an increase in the amount of formazan dye formed, which directly correlates to the number of metabolically active cells in the culture.\n(§4) After an incubation period of 72 h, at day 4, were prepared the 19 mL medium with reagent WST-1 1mL ([…]). The medium was removed from the 96 microplate and 200 µL of solution WST-1/medium were added for each well. The cells were incubated at 37°C in a humidified atmosphere of 5% CO2 for 1h30 and the absorbance at 450-655 nm was measured by Microplate Manager 5.2 (Bio-Rad)."}, "HT-1080": {"tested_on": "HT-1080", "assay": "WST-1 proliferation / cytotoxic test", "type": "cell-based", "details": "Homo sapiens, Fibrosarcoma, wst-1 cytotoxic test, 72 h", "procedure": "as §1, §2, §3, §4"}, "NCI-H460": {"tested_on": "NCI-H460", "assay": "WST-1 proliferation / cytotoxic test", "type": "cell-based", "details": "Homo sapiens, Lung, wst-1 cytotoxic test, 72 h", "procedure": "as §1, §2, §3, §4"}, "Granta-519": {"tested_on": "Granta-519", "assay": "WST-1 proliferation / cytotoxic test", "type": "cell-based", "details": "Homo sapiens, Mantle cell lymphoma, wst-1 cytotoxic test, 72 h", "procedure": "as §1, §2, §3, §4"}, "VAL": {"tested_on": "VAL", "assay": "WST-1 proliferation / cytotoxic test", "type": "cell-based", "details": "Homo sapiens, B lymphoma, wst-1 cytotoxic test, 72 h", "procedure": "as §1, §2, §3, §4"}, "U87": {"tested_on": "U87", "assay": "WST-1 proliferation / cytotoxic test", "type": "cell-based", "details": "Homo sapiens, U-87 MG, Brain, wst-1 cytotoxic test, 72 h", "procedure": "as §1, §2, §3, §4"}, "HeLa": {"tested_on": "HeLa", "assay": "WST-1 proliferation / cytotoxic test", "type": "cell-based", "details": "Homo sapiens, Cervical, wst-1 cytotoxic test, 72 h", "procedure": "as §1, §2, §3, §4"}, "SH-SY5Y": {"tested_on": "SH-SY5Y", "assay": "WST-1 proliferation / cytotoxic test", "type": "cell-based", "details": "Homo sapiens, Brain, wst-1 cytotoxic test, 72 h", "procedure": "as §1, §2, §3, §4"}, "MDA-MB-468": {"tested_on": "MDA-MB-468", "assay": "WST-1 proliferation / cytotoxic test", "type": "cell-based", "details": "Homo sapiens, Breast, wst-1 cytotoxic test, 72 h", "procedure": "as §1, §2, §3, §4"}, "HCT-116": {"tested_on": "HCT-116", "assay": "WST-1 proliferation / cytotoxic test", "type": "cell-based", "details": "Homo sapiens, Colon, wst-1 cytotoxic test, 72 h", "procedure": "as §1, §2, §3, §4"}, "A549": {"tested_on": "A549", "assay": "WST-1 proliferation / cytotoxic test", "type": "cell-based", "details": "Homo sapiens, Lung, wst-1 cytotoxic test, 72 h", "procedure": "as §1, §2, §3, §4"}}, "data": [{"smiles": "CCOc1ccccc1NC(=O)c1ccc(C)c(S(=O)(=O)Nc2ccc(C)cc2)c1", "note": "[Compound 1, N-(2-ethoxyphenyl)-4-methyl-3-(N-(p-tolyl)sulfamoyl)benzamide]", "values": [{"measurement": "formation of new blood vessels (tube formation)", "setting": "HUVEC cells", "result": "effectively inhibits the formation of new blood vessels"}, {"measurement": "IC50", "setting": "MDA-MB-231; Breast, MDA-MB-231, wst-1 cytotoxic test, 72 h", "result": "700 ± 80", "unit": "nM"}, {"measurement": "IC50", "setting": "MDA-MB-231; inhibition of proliferation, clone MDA-MB-231 (Table 2)", "result": "700 ± 50", "unit": "nM"}, {"measurement": "proliferation of MDA-MB-231 cells", "setting": "MDA-MB-231; in vitro, Figure 3B", "result": "inhibits"}, {"measurement": "motility of cancer cells (migration speed)", "setting": "MDA-MB-231 cancer cells", "result": "significant anti-migratory effect"}, {"measurement": "IC50", "setting": "HT-29", "result": "500 ± 10", "unit": "nM"}, {"measurement": "IC50", "setting": "HT-1080", "result": "300 ± 10", "unit": "nM"}, {"measurement": "IC50", "setting": "NCI-H460", "result": "500 ± 70", "unit": "nM"}, {"measurement": "IC50", "setting": "Granta-519", "result": "500 ± 70", "unit": "nM"}, {"measurement": "IC50", "setting": "VAL", "result": "1000 ± 60", "unit": "nM"}, {"measurement": "IC50", "setting": "U87", "result": "500 ± 20", "unit": "nM"}, {"measurement": "IC50", "setting": "HeLa", "result": "200 ± 60", "unit": "nM"}, {"measurement": "IC50", "setting": "SH-SY5Y", "result": "100 ± 20", "unit": "nM"}, {"measurement": "IC50", "setting": "MDA-MB-468", "result": "500 ± 60", "unit": "nM"}, {"measurement": "IC50", "setting": "HCT-116", "result": "500 ± 70", "unit": "nM"}, {"measurement": "IC50", "setting": "A549", "result": "400 ± 30", "unit": "nM"}]}]}
